From patent US10010545B1, “Antibiotic compositions and methods of use” (University of South Florida, priority 2013, dated 2018)
≈ marks a conversion by molar mass, not a printed value.

What was measured:
Staphylococcus aureus = assay: Growth testing against ESKAPE pathogens: Staphylococcus aureus; type: cell-based; design: key to Activity against Staphylococcus aureus (growth observed): Growth; X: No Growth
Procedure: (§1) Six analogs (FIG. 2) of the ciprofloxacin-N thiolated β-lactam were successfully synthesized. All these compounds were then tested against ESKAPE pathogens for bioactivity. The ESKAPE pathogens are a collection of six deadly superbugs, Enterococcus faecium, Staphylococcus aureus, Klebsiella pneumoniae, Acinetobacter baumannii, Pseudomonas aeruginosa, and Enterobacter species. […] G denotes growth and X denotes no growth in the tables.

Pseudomonas aeruginosa = assay: Growth testing against ESKAPE pathogens: Pseudomonas aeruginosa; type: cell-based; design: key: Growth; X: No Growth
Procedure: as §1

Klebesiella pneumonia = assay: Growth testing against ESKAPE pathogens: Klebesiella pneumonia; type: cell-based, Klebsiella pneumoniae; design: key: Growth; X: No Growth
Procedure: as §1

Enterococcus faecium = assay: Growth testing against ESKAPE pathogens: Enterococcus faecium; type: cell-based; design: key: Growth; X: No Growth
Procedure: as §1

Acinetobacter baumannii = assay: Growth testing against ESKAPE pathogens: Acinetobacter baumannii; type: cell-based; design: key: Growth; X: No Growth
Procedure: as §1

CCCCCC(=O)N1CCN(c2cc3c(cc2F)c(=O)c(C(=O)OC2C(=O)N(SC(C)CC)C2c2ccccc2Cl)cn3C2CC2)CC1 (stereo not drawn) [Lactam 129]
Activity against Staphylococcus aureus (growth observed) (Staphylococcus aureus; 1 μg/ml): G
Activity against Staphylococcus aureus (growth observed) (Staphylococcus aureus; 2 μg/ml): G
Activity against Staphylococcus aureus (growth observed) (Staphylococcus aureus; 3 μg/ml): G
Activity against Staphylococcus aureus (growth observed) (Staphylococcus aureus; 4 μg/ml): G
Activity against Staphylococcus aureus (growth observed) (Staphylococcus aureus; 5 μg/ml): G
Activity against Staphylococcus aureus (growth observed) (Staphylococcus aureus; 6 μg/ml): G
Activity against Staphylococcus aureus (growth observed) (Staphylococcus aureus; 7 μg/ml): G
Activity against Staphylococcus aureus (growth observed) (Staphylococcus aureus; 8 μg/ml): G
Activity against Staphylococcus aureus (growth observed) (Staphylococcus aureus; 9 μg/ml): G
Activity against Staphylococcus aureus (growth observed) (Staphylococcus aureus; 10 μg/ml): G
Activity against Staphylococcus aureus (growth observed) (Staphylococcus aureus; 25 μg/ml): G
Activity against Pseudomonas aeruginosa (growth observed) (Pseudomonas aeruginosa; 1 μg/ml): G
Activity against Pseudomonas aeruginosa (growth observed) (Pseudomonas aeruginosa; 2 μg/ml): G
Activity against Pseudomonas aeruginosa (growth observed) (Pseudomonas aeruginosa; 3 μg/ml): G
Activity against Pseudomonas aeruginosa (growth observed) (Pseudomonas aeruginosa; 4 μg/ml): G
Activity against Pseudomonas aeruginosa (growth observed) (Pseudomonas aeruginosa; 5 μg/ml): G
Activity against Pseudomonas aeruginosa (growth observed) (Pseudomonas aeruginosa; 6 μg/ml): G
Activity against Pseudomonas aeruginosa (growth observed) (Pseudomonas aeruginosa; 7 μg/ml): G
Activity against Pseudomonas aeruginosa (growth observed) (Pseudomonas aeruginosa; 8 μg/ml): G
Activity against Pseudomonas aeruginosa (growth observed) (Pseudomonas aeruginosa; 9 μg/ml): G
Activity against Pseudomonas aeruginosa (growth observed) (Pseudomonas aeruginosa; 10 μg/ml): G
Activity against Pseudomonas aeruginosa (growth observed) (Pseudomonas aeruginosa; 25 μg/ml): G
Activity against Klebesiella pneumonia (growth observed) (Klebesiella pneumonia; 1 μg/ml): G
Activity against Klebesiella pneumonia (growth observed) (Klebesiella pneumonia; 2 μg/ml): G
Activity against Klebesiella pneumonia (growth observed) (Klebesiella pneumonia; 3 μg/ml): G
Activity against Klebesiella pneumonia (growth observed) (Klebesiella pneumonia; 4 μg/ml): G
Activity against Klebesiella pneumonia (growth observed) (Klebesiella pneumonia; 5 μg/ml): G
Activity against Klebesiella pneumonia (growth observed) (Klebesiella pneumonia; 6 μg/ml): G
Activity against Klebesiella pneumonia (growth observed) (Klebesiella pneumonia; 7 μg/ml): G
Activity against Klebesiella pneumonia (growth observed) (Klebesiella pneumonia; 8 μg/ml): G
Activity against Klebesiella pneumonia (growth observed) (Klebesiella pneumonia; 9 μg/ml): G
Activity against Klebesiella pneumonia (growth observed) (Klebesiella pneumonia; 10 μg/ml): G
Activity against Klebesiella pneumonia (growth observed) (Klebesiella pneumonia; 25 μg/ml): G
Activity against Enterococcus faecium (growth observed) (Enterococcus faecium; 1 μg/ml): G
Activity against Enterococcus faecium (growth observed) (Enterococcus faecium; 2 μg/ml): G
Activity against Enterococcus faecium (growth observed) (Enterococcus faecium; 3 μg/ml): G
Activity against Enterococcus faecium (growth observed) (Enterococcus faecium; 4 μg/ml): G
Activity against Enterococcus faecium (growth observed) (Enterococcus faecium; 5 μg/ml): G
Activity against Enterococcus faecium (growth observed) (Enterococcus faecium; 6 μg/ml): G
Activity against Enterococcus faecium (growth observed) (Enterococcus faecium; 7 μg/ml): G
Activity against Enterococcus faecium (growth observed) (Enterococcus faecium; 8 μg/ml): G
Activity against Enterococcus faecium (growth observed) (Enterococcus faecium; 9 μg/ml): G
Activity against Enterococcus faecium (growth observed) (Enterococcus faecium; 10 μg/ml): G
Activity against Enterococcus faecium (growth observed) (Enterococcus faecium; 25 μg/ml): G
Activity against Acinetobacter baumannii (growth observed) (Acinetobacter baumannii; 1 μg/ml): G
Activity against Acinetobacter baumannii (growth observed) (Acinetobacter baumannii; 2 μg/ml): G
Activity against Acinetobacter baumannii (growth observed) (Acinetobacter baumannii; 3 μg/ml): G
Activity against Acinetobacter baumannii (growth observed) (Acinetobacter baumannii; 4 μg/ml): G
Activity against Acinetobacter baumannii (growth observed) (Acinetobacter baumannii; 5 μg/ml): G
Activity against Acinetobacter baumannii (growth observed) (Acinetobacter baumannii; 6 μg/ml): G
Activity against Acinetobacter baumannii (growth observed) (Acinetobacter baumannii; 7 μg/ml): G
Activity against Acinetobacter baumannii (growth observed) (Acinetobacter baumannii; 8 μg/ml): G
Activity against Acinetobacter baumannii (growth observed) (Acinetobacter baumannii; 9 μg/ml): G
Activity against Acinetobacter baumannii (growth observed) (Acinetobacter baumannii; 10 μg/ml): G
Activity against Acinetobacter baumannii (growth observed) (Acinetobacter baumannii; 25 μg/ml): G

CCCCCCC(=O)N1CCN(c2cc3c(cc2F)c(=O)c(C(=O)OC2C(=O)N(SC(C)CC)C2c2ccccc2Cl)cn3C2CC2)CC1 (stereo not drawn) [Lactam 130]
Activity against Staphylococcus aureus (growth observed) (Staphylococcus aureus; 1 μg/ml): G
Activity against Staphylococcus aureus (growth observed) (Staphylococcus aureus; 2 μg/ml): G
Activity against Staphylococcus aureus (growth observed) (Staphylococcus aureus; 3 μg/ml): G
Activity against Staphylococcus aureus (growth observed) (Staphylococcus aureus; 4 μg/ml): G
Activity against Staphylococcus aureus (growth observed) (Staphylococcus aureus; 5 μg/ml): G
Activity against Staphylococcus aureus (growth observed) (Staphylococcus aureus; 6 μg/ml): G
Activity against Staphylococcus aureus (growth observed) (Staphylococcus aureus; 7 μg/ml): G
Activity against Staphylococcus aureus (growth observed) (Staphylococcus aureus; 8 μg/ml): G
Activity against Staphylococcus aureus (growth observed) (Staphylococcus aureus; 9 μg/ml): G
Activity against Staphylococcus aureus (growth observed) (Staphylococcus aureus; 10 μg/ml): X
Activity against Staphylococcus aureus (growth observed) (Staphylococcus aureus; 25 μg/ml): X
MIC (Staphylococcus aureus; against S. aureus): 10 µg/mL (≈ 14.1 µM)
Activity against Pseudomonas aeruginosa (growth observed) (Pseudomonas aeruginosa; 1 μg/ml): G
Activity against Pseudomonas aeruginosa (growth observed) (Pseudomonas aeruginosa; 2 μg/ml): G
Activity against Pseudomonas aeruginosa (growth observed) (Pseudomonas aeruginosa; 3 μg/ml): G
Activity against Pseudomonas aeruginosa (growth observed) (Pseudomonas aeruginosa; 4 μg/ml): G
Activity against Pseudomonas aeruginosa (growth observed) (Pseudomonas aeruginosa; 5 μg/ml): G
Activity against Pseudomonas aeruginosa (growth observed) (Pseudomonas aeruginosa; 6 μg/ml): G
Activity against Pseudomonas aeruginosa (growth observed) (Pseudomonas aeruginosa; 7 μg/ml): G
Activity against Pseudomonas aeruginosa (growth observed) (Pseudomonas aeruginosa; 8 μg/ml): G
Activity against Pseudomonas aeruginosa (growth observed) (Pseudomonas aeruginosa; 9 μg/ml): G
Activity against Pseudomonas aeruginosa (growth observed) (Pseudomonas aeruginosa; 10 μg/ml): G
Activity against Pseudomonas aeruginosa (growth observed) (Pseudomonas aeruginosa; 25 μg/ml): G
Activity against Klebesiella pneumonia (growth observed) (Klebesiella pneumonia; 1 μg/ml): G
Activity against Klebesiella pneumonia (growth observed) (Klebesiella pneumonia; 2 μg/ml): G
Activity against Klebesiella pneumonia (growth observed) (Klebesiella pneumonia; 3 μg/ml): G
Activity against Klebesiella pneumonia (growth observed) (Klebesiella pneumonia; 4 μg/ml): G
Activity against Klebesiella pneumonia (growth observed) (Klebesiella pneumonia; 5 μg/ml): G
Activity against Klebesiella pneumonia (growth observed) (Klebesiella pneumonia; 6 μg/ml): G
Activity against Klebesiella pneumonia (growth observed) (Klebesiella pneumonia; 7 μg/ml): G
Activity against Klebesiella pneumonia (growth observed) (Klebesiella pneumonia; 8 μg/ml): G
Activity against Klebesiella pneumonia (growth observed) (Klebesiella pneumonia; 9 μg/ml): G
Activity against Klebesiella pneumonia (growth observed) (Klebesiella pneumonia; 10 μg/ml): G
Activity against Klebesiella pneumonia (growth observed) (Klebesiella pneumonia; 25 μg/ml): G
Activity against Enterococcus faecium (growth observed) (Enterococcus faecium; 1 μg/ml): G
Activity against Enterococcus faecium (growth observed) (Enterococcus faecium; 2 μg/ml): G
Activity against Enterococcus faecium (growth observed) (Enterococcus faecium; 3 μg/ml): G
Activity against Enterococcus faecium (growth observed) (Enterococcus faecium; 4 μg/ml): G
Activity against Enterococcus faecium (growth observed) (Enterococcus faecium; 5 μg/ml): G
Activity against Enterococcus faecium (growth observed) (Enterococcus faecium; 6 μg/ml): G
Activity against Enterococcus faecium (growth observed) (Enterococcus faecium; 7 μg/ml): G
Activity against Enterococcus faecium (growth observed) (Enterococcus faecium; 8 μg/ml): G
Activity against Enterococcus faecium (growth observed) (Enterococcus faecium; 9 μg/ml): G
Activity against Enterococcus faecium (growth observed) (Enterococcus faecium; 10 μg/ml): G
Activity against Enterococcus faecium (growth observed) (Enterococcus faecium; 25 μg/ml): G
Activity against Acinetobacter baumannii (growth observed) (Acinetobacter baumannii; 1 μg/ml): G
Activity against Acinetobacter baumannii (growth observed) (Acinetobacter baumannii; 2 μg/ml): G
Activity against Acinetobacter baumannii (growth observed) (Acinetobacter baumannii; 3 μg/ml): G
Activity against Acinetobacter baumannii (growth observed) (Acinetobacter baumannii; 4 μg/ml): G
Activity against Acinetobacter baumannii (growth observed) (Acinetobacter baumannii; 5 μg/ml): G
Activity against Acinetobacter baumannii (growth observed) (Acinetobacter baumannii; 6 μg/ml): G
Activity against Acinetobacter baumannii (growth observed) (Acinetobacter baumannii; 7 μg/ml): G
Activity against Acinetobacter baumannii (growth observed) (Acinetobacter baumannii; 8 μg/ml): G
Activity against Acinetobacter baumannii (growth observed) (Acinetobacter baumannii; 9 μg/ml): G
Activity against Acinetobacter baumannii (growth observed) (Acinetobacter baumannii; 10 μg/ml): G
Activity against Acinetobacter baumannii (growth observed) (Acinetobacter baumannii; 25 μg/ml): G
